Measurements reported in patent US20250034108A1, “SODIUM CHANNEL BLOCKERS” (NOVARTIS AG, priority 2023, published 2025).

Legend:
Format in all cases: cell-based
human Nav1.5 [1] = target: T1, human Nav1.5 (Homo sapiens (Human), UniProt Q14524); test: Qpatch automated patch-clamp, peak Nav1.5 current inhibition, 1 Hz with 50 nM ATX-II (holding potential -100 mV); details: CHO-K1 cells stably expressing human Nav1.5, read-out: Nav1.5 IC50 (1 Hz, ATXII)
Excerpt: (§1) Electrophysiology was used to measure the ionic currents in isolated living cells using automated patch-clamp recording, performed using an automated patch-clamp machine called Qpatch (Sophion Bioscience). Two different assay conditions were used to identify compounds with atrial-selective potential. The 5-Hz AF-like assay has more depolarized holding potential at −85 mV to mimic atrial resting membrane potential (RMP) and was used to identify compounds of strong rate-dependence. Active, rate-dependent compounds were then screened at 1 Hz (i.e., sinus rate) at the holding potential of −100 mV to mimic the ventricular scenario and help identify compounds with the largest potency separation or attenuation from the 5-Hz AF-like assay. Such compounds have the potential for treating AF without the QRS liability inherent to Class Ic drugs.
(§2) The sodium current conducted through a cell (via Nav1.5) or electrical signals were processed through a low-pass filter at 5 KHz, re-digitalized and acquired at 20 kHz. Series resistance was not compensated and leak subtraction was performed.
(§3) 1 to 3 million Chinese Hamster Ovary cells (also known as CHO-K1) stably expressing human Nav1.5 were seeded into […] culture flasks with 25 mL medium (consisting of Gibco Dulbecco's Modified Eagle Medium as a base medium with 1% MEM non-essential amino acids, 400 μg/mL Geneticin, 5 μg/mL puromycin and 10% fetal bovine serum) 48-72 hours prior to the experiments. On the day of the experiment, cells were washed once with phosphate-buffered saline (also known as PBS; Gibco) detached with Detachin™ (Genlantis), and re-suspended in CHO—S-SFM II media (Gibco) at 200,000 cells/mL. The CHO—S-SFM II was replaced with assay solutions prior to the assays. Whole-cell currents were recorded at room temperature in the whole-cell configuration. The external aqueous assay solution (pH=7.4; Osm=307-315) contained the following (the concentration for each component is expressed in parentheses in mM): NaCl (140 mM), KCl (4 mM), CaCl2) (2 mM), MgCl2 (1 mM), 4-(2-hydroxyethyl)-1-piperazineethanesulfonic acid, also known as HEPES (10 mM), and glucose (5 mM). The internal aqueous assay solution (pH=7.2; Osm=292-295) contained the following (the concentration for each component is expressed in parentheses in mM): CsF (110 mM), CsCl (10 mM), NaCl (10 mM), HEPES (10 mM), and ethylene glycolbis(β-aminoethyl ether)-N,N,N′,N′-tetraacetic acid, also known as EGTA (10 mM).
(§4) To assess peak Nav1.5 current inhibition mimicking a ventricular condition at sinus rate with or without ATX-II (Nav1.5 IC50 (1 Hz, ATXII) (μM) or (1 Hz, Sinus Rate) (μM)), compounds were first prepared at 10 mM in DMSO, and cells were pre-incubated with test compounds at each concentration for 3 min. in an ascending order of 0, 0.37, 1.1, 3.3, 10 and 30 uM. In the assay with ATX-II (Alomone Labs), 50 nM ATX-II was included during the 3-min. compound incubation. A square pulse (−10 mV; 400 ms and a holding potential at −100 mV) was run at 1 Hz for 25 s until no further inhibition or Nav1.5 current change was observed. The percent inhibition (expressed as ([Iafter compound treatment/Ibefore compound treatment]×100%) is calculated by normalizing the peak current amplitude at the last pulse of each of the 6 compound concentrations by the amplitude before exposure to the test compound. The compiled data was further normalized by vehicle control (DMSO) to account for Nav1.5 current run-down, and IC50 was calculated by Matlab (MathWorks, USA).

human Nav1.5 [2] = target: T1, human Nav1.5; test: Qpatch automated patch-clamp, peak Nav1.5 current inhibition, 1 Hz sinus rate, ventricular condition (holding potential -100 mV); details: CHO-K1 cells stably expressing human Nav1.5, without ATX-II
Excerpt: as §1, §2, §3, §4

human Nav1.5 [3] = target: T1, human Nav1.5; test: Qpatch automated patch-clamp, peak Nav1.5 current inhibition, 5-Hz AF-like assay (holding potential -85 mV); details: CHO-K1 cells stably expressing human Nav1.5, holding potential -85 mV, Table 5, read-out: Nav1.5 IC50 (5 Hz, AF Rate)
How it was run: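 CHO-K1 cells stably expressing human Nav1.5, whole-cell automated patch-clamp at room temperature, CsF-based internal. Compounds pre-incubated 3 min each at ascending 0-30 μM; +10 to −85 mV ramp (150 ms) applied at 5 Hz for 12 s from −85 mV holding. IC50 from last-pulse peak current, vehicle-normalized for run-down.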

T1 sequence (Q14524 whole entry): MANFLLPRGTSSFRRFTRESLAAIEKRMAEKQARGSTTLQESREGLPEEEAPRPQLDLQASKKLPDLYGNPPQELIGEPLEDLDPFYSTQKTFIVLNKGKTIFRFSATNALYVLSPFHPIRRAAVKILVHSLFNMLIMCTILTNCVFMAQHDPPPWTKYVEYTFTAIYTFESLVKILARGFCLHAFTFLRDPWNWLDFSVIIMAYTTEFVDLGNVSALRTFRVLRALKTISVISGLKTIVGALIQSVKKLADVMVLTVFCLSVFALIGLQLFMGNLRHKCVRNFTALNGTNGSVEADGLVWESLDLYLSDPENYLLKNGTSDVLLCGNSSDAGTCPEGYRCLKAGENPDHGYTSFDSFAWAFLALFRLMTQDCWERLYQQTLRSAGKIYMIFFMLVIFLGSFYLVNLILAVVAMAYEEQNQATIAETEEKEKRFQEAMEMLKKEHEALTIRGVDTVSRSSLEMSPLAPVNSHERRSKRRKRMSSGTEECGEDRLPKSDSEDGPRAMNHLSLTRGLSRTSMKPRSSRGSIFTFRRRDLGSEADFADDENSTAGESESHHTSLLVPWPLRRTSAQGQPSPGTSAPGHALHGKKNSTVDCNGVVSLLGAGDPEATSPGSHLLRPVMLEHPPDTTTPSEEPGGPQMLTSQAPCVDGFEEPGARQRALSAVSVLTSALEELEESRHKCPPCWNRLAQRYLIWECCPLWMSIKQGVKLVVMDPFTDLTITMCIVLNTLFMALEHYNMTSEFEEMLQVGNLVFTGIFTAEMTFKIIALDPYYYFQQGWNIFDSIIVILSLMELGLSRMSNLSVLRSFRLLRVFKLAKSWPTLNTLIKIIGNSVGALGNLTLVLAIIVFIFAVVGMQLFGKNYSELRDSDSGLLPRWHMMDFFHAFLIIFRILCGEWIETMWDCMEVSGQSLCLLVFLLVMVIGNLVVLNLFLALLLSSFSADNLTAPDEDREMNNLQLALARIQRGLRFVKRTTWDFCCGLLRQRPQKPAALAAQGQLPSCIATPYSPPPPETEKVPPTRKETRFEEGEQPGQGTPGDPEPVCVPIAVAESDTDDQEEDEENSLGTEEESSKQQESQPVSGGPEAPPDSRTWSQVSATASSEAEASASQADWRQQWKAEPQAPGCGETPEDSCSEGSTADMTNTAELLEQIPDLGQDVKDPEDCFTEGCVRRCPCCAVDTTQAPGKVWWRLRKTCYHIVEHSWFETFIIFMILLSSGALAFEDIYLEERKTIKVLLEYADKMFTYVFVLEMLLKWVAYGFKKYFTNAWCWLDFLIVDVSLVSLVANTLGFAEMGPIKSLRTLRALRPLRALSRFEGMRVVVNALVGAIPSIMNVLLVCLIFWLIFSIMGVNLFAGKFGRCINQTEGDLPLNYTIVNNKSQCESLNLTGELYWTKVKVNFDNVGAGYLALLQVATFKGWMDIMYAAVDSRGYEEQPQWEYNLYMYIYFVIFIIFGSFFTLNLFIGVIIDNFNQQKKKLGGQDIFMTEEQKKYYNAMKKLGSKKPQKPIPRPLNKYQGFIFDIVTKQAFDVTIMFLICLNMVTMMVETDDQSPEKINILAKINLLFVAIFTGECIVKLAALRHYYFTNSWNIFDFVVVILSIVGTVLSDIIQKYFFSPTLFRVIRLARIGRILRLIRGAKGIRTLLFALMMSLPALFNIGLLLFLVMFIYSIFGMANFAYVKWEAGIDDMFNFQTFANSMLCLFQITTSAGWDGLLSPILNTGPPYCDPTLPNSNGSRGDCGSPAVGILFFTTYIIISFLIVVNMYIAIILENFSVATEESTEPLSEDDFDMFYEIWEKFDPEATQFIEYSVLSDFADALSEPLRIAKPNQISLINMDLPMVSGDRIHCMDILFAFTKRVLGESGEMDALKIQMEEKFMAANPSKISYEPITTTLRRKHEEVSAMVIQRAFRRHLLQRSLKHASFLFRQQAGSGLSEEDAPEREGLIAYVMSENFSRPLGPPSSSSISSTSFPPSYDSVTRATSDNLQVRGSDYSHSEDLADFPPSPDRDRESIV

## CC(O)(CS(N)(=O)=O)c1cccc(-c2ncn(Cc3cc(OC(F)(F)F)ccc3F)n2)n1 (racemic) [Rac-55 + 56, 2-(6-(1-(2-fluoro-5-(trifluoromethoxy)benzyl)-1H-1,2,4-triazol-3-yl)pyridin-2-yl)-2-hydroxypropane-1-sulfonamide]
Human Nav1.5 [1]
  IC50: 17 µM
Human Nav1.5 [2]
  IC50: > 30 µM
Human Nav1.5 [3]
  IC50: 4.5 µM

## CC(O)(CS(N)(=O)=O)c1ccc(Cl)c(-c2nnn(Cc3cc(OC(F)(F)F)ccc3F)n2)c1 (single isomer, unassigned) [Example 7, (R or S)-2-(4-chloro-3-(2-(2-fluoro-5-(trifluoromethoxy)benzyl)-2H-tetrazol-5-yl)phenyl)-2-hydroxypropane-1-sulfonamide]
Human Nav1.5 [1]
  IC50: 15 µM
Human Nav1.5 [2]
  IC50: 28 µM
Human Nav1.5 [3]
  IC50: 1.3 µM

## CC(O)(CS(N)(=O)=O)c1ccc(Cl)c(-c2nnn(Cc3cc(OC(F)(F)F)ccc3F)n2)c1 (single isomer, unassigned) [Example 8, (R or S)-2-(4-chloro-3-(2-(2-fluoro-5-(trifluoromethoxy)benzyl)-2H-tetrazol-5-yl)phenyl)-2-hydroxypropane-1-sulfonamide]
Human Nav1.5 [1]
  IC50: 28 µM
Human Nav1.5 [2]
  IC50: > 30 µM
Human Nav1.5 [3]
  IC50: 1.3 µM

## CC(O)(CS(N)(=O)=O)c1ccc(F)c(-c2nnn(Cc3cc(OC(F)(F)F)ccc3F)n2)c1 (single isomer, unassigned) [Example 9, (R or S)-2-(4-fluoro-3-(2-(2-fluoro-5-(trifluoromethoxy)benzyl)-2H-tetrazol-5-yl)phenyl)-2-hydroxypropane-1-sulfonamide]
Human Nav1.5 [1]
  IC50: > 30 µM
Human Nav1.5 [2]
  IC50: > 30 µM
Human Nav1.5 [3]
  IC50: 4.1 µM

## CC(O)(CS(N)(=O)=O)c1ccc(F)c(-c2nnn(Cc3cc(OC(F)(F)F)ccc3F)n2)c1 (single isomer, unassigned) [Example 10, (R or S)-2-(4-fluoro-3-(2-(2-fluoro-5-(trifluoromethoxy)benzyl)-2H-tetrazol-5-yl)phenyl)-2-hydroxypropane-1-sulfonamide]
Human Nav1.5 [1]
  IC50: 11 µM
Human Nav1.5 [2]
  IC50: > 30 µM
Human Nav1.5 [3]
  IC50: 1 µM

## CC(O)(CS(N)(=O)=O)c1cccc(-c2nnn(Cc3cc(OC(F)(F)F)ccc3F)n2)c1F (single isomer, unassigned) [Example 11, (R or S)-2-(2-fluoro-3-(2-(2-fluoro-5-(trifluoromethoxy)benzyl)-2H-tetrazol-5-yl)phenyl)-2-hydroxypropane-1-sulfonamide]
Human Nav1.5 [1]
  IC50: 5.6 µM
Human Nav1.5 [2]
  IC50: 8.9 µM
Human Nav1.5 [3]
  IC50: 1.7 µM

## CC(O)(CS(N)(=O)=O)c1cccc(-c2nnn(Cc3cc(OC(F)(F)F)ccc3F)n2)c1F (single isomer, unassigned) [Example 12, (R or S)-2-(2-fluoro-3-(2-(2-fluoro-5-(trifluoromethoxy)benzyl)-2H-tetrazol-5-yl)phenyl)-2-hydroxypropane-1-sulfonamide]
Human Nav1.5 [1]
  IC50: 5.2 µM
Human Nav1.5 [2]
  IC50: 10 µM
Human Nav1.5 [3]
  IC50: 4.2 µM

## CC(C(C)(O)c1cccc(-c2nnn(Cc3cc(OC(F)(F)F)ccc3F)n2)n1)S(N)(=O)=O (single isomer, unassigned) [Example 13, (2R or 2S, 3R or 3S)-3-(6-(2-(2-fluoro-5-(trifluoromethoxy)benzyl)-2H-tetrazol-5-yl)pyridin-2-yl)-3-hydroxybutane-2-sulfonamide]
Human Nav1.5 [1]
  IC50: > 30 µM
Human Nav1.5 [2]
  IC50: 12 µM
Human Nav1.5 [3]
  IC50: 4.3 µM

## CC(C(C)(O)c1cccc(-c2nnn(Cc3cc(OC(F)(F)F)ccc3F)n2)n1)S(N)(=O)=O (single isomer, unassigned) [Example 14, (2R or 2S,3R or 3S)-3-(6-(2-(2-fluoro-5-(trifluoromethoxy)benzyl)-2H-tetrazol-5-yl)pyridin-2-yl)-3-hydroxybutane-2-sulfonamide]
Human Nav1.5 [1]
  IC50: 15 µM
Human Nav1.5 [2]
  IC50: > 30 µM
Human Nav1.5 [3]
  IC50: 4 µM

## CC(C(C)(O)c1cccc(-c2nnn(Cc3cc(OC(F)(F)F)ccc3F)n2)n1)S(N)(=O)=O (single isomer, unassigned) [Example 15, (2R or 2S,3R or 3S)-3-(6-(2-(2-fluoro-5-(trifluoromethoxy)benzyl)-2H-tetrazol-5-yl)pyridin-2-yl)-3-hydroxybutane-2-sulfonamide]
Human Nav1.5 [1]
  IC50: 24 µM
Human Nav1.5 [2]
  IC50: > 30 µM
Human Nav1.5 [3]
  IC50: 4.1 µM

## CC(C(C)(O)c1cccc(-c2nnn(Cc3cc(OC(F)(F)F)ccc3F)n2)n1)S(N)(=O)=O (single isomer, unassigned) [Example 16, (2R or 2S, 3R or 3S)-3-(6-(2-(2-fluoro-5-(trifluoromethoxy)benzyl)-2H-tetrazol-5-yl)pyridin-2-yl)-3-hydroxybutane-2-sulfonamide]
Human Nav1.5 [1]
  IC50: 4.8 µM
Human Nav1.5 [2]
  IC50: 16 µM
Human Nav1.5 [3]
  IC50: 2.8 µM

## CC(O)(CS(N)(=O)=O)c1cc(F)cc(-c2nnn(Cc3cc(OC(F)(F)F)ccc3F)n2)c1 (single isomer, unassigned) [Example 23, (R or S)-2-(3-fluoro-5-(2-(2-fluoro-5-(trifluoromethoxy)benzyl)-2H-tetrazol-5-yl)phenyl)-2-hydroxypropane-1-sulfonamide]
Human Nav1.5 [1]
  IC50: > 30 µM
Human Nav1.5 [2]
  IC50: > 30 µM
Human Nav1.5 [3]
  IC50: 5.6 µM

## CC(O)(CS(N)(=O)=O)c1cc(F)cc(-c2nnn(Cc3cc(OC(F)(F)F)ccc3F)n2)c1 (single isomer, unassigned) [Example 24, (R or S)-2-(3-fluoro-5-(2-(2-fluoro-5-(trifluoromethoxy)benzyl)-2H-tetrazol-5-yl)phenyl)-2-hydroxypropane-1-sulfonamide]
Human Nav1.5 [1]
  IC50: 7.8 µM
Human Nav1.5 [2]
  IC50: > 30 µM
Human Nav1.5 [3]
  IC50: 2 µM

## CC(O)(CS(N)(=O)=O)c1cccc(-c2nnn(Cc3cccc(C(F)(F)F)c3)n2)n1 (single isomer, unassigned) [Example 40, (R or S)-2-hydroxy-2-(6-(2-(3-(trifluoromethyl)benzyl)-2H-tetrazol-5-yl)pyridin-2-yl)propane-1-sulfonamide]
Human Nav1.5 [2]
  IC50: > 30 µM
Human Nav1.5 [3]
  IC50: 21 µM

## CC(O)(CS(N)(=O)=O)c1cccc(-c2nnn(Cc3cccc(C(F)(F)F)c3)n2)n1 (single isomer, unassigned) [Example 41, (R or S)-2-hydroxy-2-(6-(2-(3-(trifluoromethyl)benzyl)-2H-tetrazol-5-yl)pyridin-2-yl)propane-1-sulfonamide]
Human Nav1.5 [2]
  IC50: > 30 µM
Human Nav1.5 [3]
  IC50: > 30 µM

## CC(C(O)c1cccc(-c2nnn(Cc3cc(OC(F)(F)F)ccc3F)n2)n1)S(N)(=O)=O (single isomer, unassigned) [Example 51, (JR or 1S,2R or 2S)-1-(6-(2-(2-fluoro-5-(trifluoromethoxy)benzyl)-2H-tetrazol-5-yl)pyridin-2-yl)-1-hydroxypropane-2-sulfonamide]
Human Nav1.5 [2]
  IC50: > 30 µM
Human Nav1.5 [3]
  IC50: 25 µM

## CC(O)(CS(N)(=O)=O)c1cccc(-c2ncn(Cc3cc(OC(F)(F)F)ccc3F)n2)n1 (single isomer, unassigned) [Example 55, (R or S)-2-(6-(1-(2-fluoro-5-(trifluoromethoxy)benzyl)-1H-1,2,4-triazol-3-yl)pyridin-2-yl)-2-hydroxypropane-1-sulfonamide]
Human Nav1.5 [2]
  IC50: > 30 µM
Human Nav1.5 [3]
  IC50: 19 µM

## CC(O)(CS(N)(=O)=O)c1cccc(-c2ncn(Cc3cc(OC(F)(F)F)ccc3F)n2)n1 (single isomer, unassigned) [Example 56, (R or S)-2-(6-(1-(2-fluoro-5-(trifluoromethoxy)benzyl)-1H-1,2,4-triazol-3-yl)pyridin-2-yl)-2-hydroxypropane-1-sulfonamide]
Human Nav1.5 [2]
  IC50: > 30 µM
Human Nav1.5 [3]
  IC50: 16 µM
